Data reported in US20200239587A1, “SENSITIZATION OF TUMORS TO THERAPIES THROUGH ENDOGLIN ANTAGONISM” (Cedars-Sinai Medical Center, priority 2016, published 2020).

How the values were obtained:
[1] = tested on: prostatic epithelia; experiment: Cancer stem cell markers and sphere-forming units; assay type: cell-based; settings: antagonizing endoglin
[2] = tested on: CW22Rv1 cells in 3D co-culture with mouse prostatic fibroblasts; experiment: 3D co-culture epithelial proliferation, EpCam and Ki-67 FACS; assay type: cell-based, human
Description: (§1) A modified version of the 3D organotypic co-culture system was performed in a collagen matrix similar to that previously reported (Stark et al., 1999, J Invest Dermatol 112, 681-691). Collagen matrix gels were prepared by mixing five volumes of rat tail collagen I with two volumes of matrigel (NCI), one volume of 10× DMEM medium (GE Healthcare Life Sciences), and one volume of FBS (Atlanta Biologicals), Rv1 and primary mouse prostatic fibroblasts were combined in a 1:3 ratio. Nylon squares were coated with collagen and placed on metal grids in a 6-well plate. Gel plugs (150 μl) were transferred onto the nylon squares and media was added to the level of the nylon mesh. After 72 hours, the cells were dissociated from the matrix with collagenase and dispersed for FACS analysis.
FACS experiments were performed with eBiosciences antibodies: anti-human Stro-1-FITC (340105), anti-human CD90-PE (12-0909-42), anti-human CD105-APC (17-1057-41), anti-mouse CD105-APC (17-1051-82), anti-human CD117-PE-Cy7 (15-1178-41), anti-human Ki67-PECy7 (25-5699-41), and anti-human EpCAM-PE (12-9326-41). All events were acquired on a BD LSRII flow cytometer in the Cedars-Sinai Medical Center FACS core installed with BD FACSDiva software. Files were analyzed using FlowJo software v10.2. EpCAM positive cells were used to identify the CW22Rv1 epithelia in three-dimensional (3D) co-cultures and further gated for CD105 or Ki67 positive cells.
(§2) CW22Rv1, C42B, and PC3 cells from ATCC were expanded as directed. Prostatectomy specimens from Cedars-Sinai Medical Center or the Greater Los Angeles Veterans Affairs were cultured to generate NAF and CAF cells using the same method, as C57BL/6 mouse wild-type prostatic fibroblasts were grown as previously reported (Franco et al., 2011, Cancer research 71, 1272-1281; Kiskowski et al., 2011, Cancer research 68, 4709-4718). TRC105 and M1043 were provided by TRACON Pharmaceuticals, Inc. (San Diego, Calif.). Enzalutamide (Xtandi) was purchased from Medivation (San Francisco, Calif.).

[3] = tested on: CD105 cell surface expression in human CW22Rv1 epithelia and mouse prostatic fibroblasts; experiment: 3D co-culture, CD105 cell surface expression by FACS; assay type: cell-based; settings: hypoxia (2% O2), 72 hours; mouse prostatic fibroblasts and human prostate cancer epithelia
Description: After 72 hours, the cells were dissociated and assessed by FACS for CD105 expression as shown.
as §1
FACS experiments were performed with eBiosciences antibodies: anti-human Stro-1-FITC (340105), anti-human CD90-PE (12-0909-42), anti-human CD105-APC (17-1057-41), anti-mouse CD105-APC (17-1051-82), anti-human CD117-PE-Cy7 (15-1178-41), anti-human Ki67-PECy7 (25-5699-41), and anti-human EpCAM-PE (12-9326-41). All events were acquired on a BD LSRII flow cytometer in the Cedars-Sinai Medical Center FACS core installed with BD FACSDiva software. Files were analyzed using FlowJo software v10.2. […]

[4] = tested on: PGC1α in 22Rv1 cells; experiment: PGC1α expression and sub-cellular localization; assay type: cell-based, human; settings: 4Gy
Description: FIGS. 24A-24D depict that PGC1α and mitochondrial biogenesis are regulated by BMP/CD105. 22Rv1 cells were incubated with IgG or TRC105 with or without 4 Gy irradiation. All measurements were made 72 hours post radiation. FIG. 24A) Western blot for whole cell lysate, nuclear and cytoplasmic fractions were independently analyzed for PGC1α expression. Loading controls included β-actin (whole cell), lamin B (nuclear marker), and Rho A (cytoplasm marker). FIG. 24B) Immunofluorescent localization of PGC1α was visualized with DAPI nuclear counterstain. FIG. 24C) mRNA expression of PGC1α target genes, NRF1, MTFA, and CPT1C was measured. mRNA expression was normalized to GAPDH and untreated IgG 0 Gy. FIG. 24D) Mitochondrial DNA (mtDNA) was measured from total DNA extracts and normalized to nuclear DNA and compared to untreated IgG 0 Gy. Data are reported as means+/−S.D. of 3 independent experiments. (***p<0.001, ****p<0.0001).

[5] = tested on: C42B; experiment: MTT proliferation assay; assay type: cell-based, human; settings: TRC105 plus enzalutamide
Description: as §2
(§3) 3000 cells per 96-well were treated for 72 hours using 5 wells per treatment. MTT reagent (M6494, Life Technologies) was prepared as directed, incubated for one hour at 37° C., and analyzed using manufacturer's recommendations.

[6] = tested on: PC3 cells; experiment: MTT proliferation assay; assay type: cell-based, human; settings: enzalutamide in the presence of TRC105
Description: as §2, §3

[7] = tested on: Rv1; experiment: MTT proliferation assay; assay type: cell-based, human; settings: TRC105 plus enzalutamide
Description: as §2, §3

[8] = tested on: 22Rv1 cells; experiment: COMET assay; assay type: cell-based, human; settings: irradiated
Description: 22Rv1 were pre-treated with 1 μg/ml TRC105 24 hours prior to irradiation with 4 Gy. FIG. 22A) γ-H2AX or p53 bp were imunolocalized at 4, 24, and 48 hours post radiation. Foci per nuclei were quantified (n=100). FIG. 22B) Comet assay was performed 30 minutes and 24 hours following irradiation. The tail moment was quantified (n=50). FIG. 22C) Cell cycle analysis was performed on 22Rv1 at 0, 4, 8, and 24 hours post radiation in the presence of IgG or TRC105 (n=3) in 3 independent experiments. (***p<0.001, ****p<0.0001).

[9] = tested on: 22Rv1 cells; experiment: Annexin-V apoptosis by FACS after irradiation; assay type: cell-based, human; settings: TRC105 with 4 Gy radiation vs radiation alone, 5 days
Description: FIG. 18A) Cell surface CD105 expression was measured in PC3, C42b, and 22Rv1 72 hours after 4 Gy irradiation treatment by FACS analysis and compared to cells not irradiated (control). FIG. 18B) Cell surface CD105 expression was measured in cell lines following a dose range of irradiation (0, 2, 4, or 6 Gy). FIG. 18C) The durability of cell surface CD105 expression in 22Rv1 was determined 0, 0.5, 4, 8, 24, 48, 72, 120, and 168 hours following 4 Gy irradiation. CD105 cell surface expression fold change was normalized to levels expressed prior to irradiation. FIG. 18D) Western blot for phosphorylated-Smad1/5 was measured in CW22Rv1 cells in the presence or absence of serum starvation and treatment with 50 ng/ml BMP4 or 1 μg/ml TRC105. β-actin expression served as the loading control. FIG. 18E) Annexin-V expression was measured in 22Rv1 cells by FACS analysis 5 days following 4 Gy irradiation in the presence and absence of TRC105. FIG. 18F) Clonogenic assay was measured 10 days following irradiation of CW22Rv1 and C42b cells in a dose range of 0 to 6 Gy in the presence of 1 μg/ml IgG or TRC105. Data are reported as a mean+/−S.D. (**p<0.01, ***p<0.001).

TRC105: partially humanized monoclonal antibody that blocks BMP signaling; human-specific CD105 (endoglin) neutralizing antibody from Tracon Pharmaceuticals
cancer stem cell markers (CD44, ALDH, Oct4, Sox) and sphere-forming units [1]: down regulated | epithelial proliferation, antibody alone ([2]; compared to IgG control, 1 μg/mL, 72 hours): did not change epithelial proliferation | enzalutamide-induced epithelial proliferation, single antibody ([2]; enzalutamide plus M1043 or TRC105): did not alter enzalutamide-induced epithelial proliferation | epithelial proliferation, enzalutamide with both M1043 and TRC105 ([2]; triple combination): restored epithelial proliferation to that of control | enzalutamide-induced CD105 cell surface expression [3]: down regulated | radiation-induced nuclear translocation of PGC1α ([4]; 72 hours): prevented radiation-induced nuclear translocation of PGC1α | PGC1α expression, whole cell lysate ([4]; IgG or TRC105, 72 hours): no effect on PGC1α expression | cell proliferation (MTT), addition of TRC105 to enzalutamide [5]: no additional impact | viability (MTT) [6]: insensitive | cell proliferation (MTT), addition of TRC105 to enzalutamide [7]: no additional impact | tail moment ([8]; 30 minutes post radiation, p<0.001): significant increase in tail moment | tail moment ([8]; after 24 hours): no significant difference | apoptosis measured by Annexin-V [9]: significantly increased apoptosis
